The source of these data is patent publication EP0086757A1, “Derivatives of alpha or beta-mercaptopropionylamidoacetic acids, processes for their preparation and the therapeutic compositions which include them as active principles” (Farmatis S.r.l., priority 1982, dated 1983).

SMILES strings stand for the structures. Where two headings read alike, the source gives them in different places. Bounds are passed on as bounds.

The test system of data set [1] is rats which underwent CCl4 nebulization treatment. Briefly: CCl4 nebulization, bronchial mucosa protection. It counts as in vivo. To be noted: oral 0.5 g/kg/die; CCl4 nebulization 10 days, 5 applications, 2 minutes per day. The source says: Finally, with the rats which underwent CCl4 nebulization treatment for 10 days (5 applications, 2.minutes per day), the contemporaneous oral administration of the esters of this invention, at doses of 0.5 g/kg/die, prevented intrabronchial desquamation and reactive hyperplasia of the mucosa to the extent of 60%.

The next data set can be described thus: acute toxicity (DL50). It counts as in vivo. The procedure: In fact, while S-carboxymethylcysteine has a DL50 of 5.18 g/kg, the new thiolic esters' DL50 cannot be determined, i.p., since more than 5 g/kg cannot be administered; but, orally, the DL50 is above 8 g/kg, as with the S-carboymethylcysteine. The subacute, chronic and fetal toxi city was evaluated by mixing the esters with the food.

The subject of the next data set is aerosol histaminic shock. The data set is described as follows: aerosol histaminic shock (antibronchospastic activity). It counts as in vivo. The procedure:
The antibronchospastic activity of the new compounds, in face, was evaluated by pretreating test animals with 2 g/kg of the new compounds, administered by way of an esophagal probe, and then submitting them to aerosol histaminic shock (histamine phosphate 1:80 at about 140 mm Eg). The time was noted between when the aerosol was given and the convulsions began. After two hours of pretreatment, times amounting to 70% of the approximately 120 seconds of the control group were obtained. […] The new compounds, therefore, provide intense and persistent protection against bronchspasm induced experimentally with histamine, in strict correlation with the anti-inflammatory activity reported previously.

The test system of data set [2] is Carragenin-induce edema in hind paw of the rat. The data set is described as follows: carragenin-induced hind paw edema (anti-inflammatory activity). Type of data set: in vivo, rats. The following applies: oral by esophagal probe one hour before carragenin; paw volume three hours later. The procedure: The anti-inflammatory activity was investigated on rats by administering the new products,orally,using an esophagal probe. One hour after administration, a subcutaneous injection of 0.05 ml of 1% carragenin was made in the right hind paw and three hours later a plethysmometric evaluation was made of the difference in volume between the two hind paws (WINTER C.A., RISLEY E.A., NUSS G.W., Carragenin-induce edema in hind paw of the rat as an assay for anti-inflammatory drugs. Proc. Soc. Exp. Biol. Med., 111, 544 - 1962).

In data set [3] the test system is bronchial hypersecretion induced in rats with SO2. Briefly: bronchial hypersecretion induced with SO2 inhalation. Type of data set: in vivo. The following applies: oral 0.5 g/kg/die for two weeks; 300 ppm SO2 two hours per day, total 90 hours; untreated 80%. As to the method: The inhalation of 300 ppm of […] for two hours per day, for a total period of 90 hours, produced bronchial obstruction in only 12% of the animals compared to the 80% produced in those not treated. […] Finally, with the rats which underwent CCl4 nebulization treatment for 10 days (5 applications, 2.minutes per day), the contemporaneous oral administration of the esters of this invention, at doses of 0.5 g/kg/die, prevented intrabronchial desquamation and reactive hyperplasia of the mucosa to the extent of 60%.

The test system of data set [4] is glycopeptides of the bronchial mucus. Briefly: glycopeptide analysis of bronchial mucus of orally treated patients with bronchial hypersecretion. It counts as in vivo. The following applies: comparative test, 70 mg/kg/die.
Data set [5] relates to Carragenin-induce edema in hind paw of the rat. The following applies: comparison value for a classical antiphlogistic; cited from earlier work.

With `N[C@@H](CSCC(=O)O)C(=O)O` [S-carboxymethylcysteine], in data set [1], the “prevention of intrabronchial desquamation and reactive hyperplasia of the mucosa” value is at most 40%. For the same compound, the DL50 in the data set “acute toxicity (DL50)” (i.p. (route only implied for the comparator), more than 5 g/kg cannot be administered) was 5.18 g/kg. Besides, the DL50 entry in “acute toxicity (DL50)” (orally) is “above 8 g/kg”. Besides, in the data set with aerosol histaminic shock, the “difference between the control and tested subjects in time to convulsions” value is on record as “no appreciable difference”. For the same compound, the DE50 entry in data set [2] is given as “not determinable”. Moreover, the “animals with bronchial obstruction (not protected)” value in data set [3] is on record as 25%. Also, in data set [4], the “average increase in sialoglycopeptides” value was at most 75%; the “diminution of glycopeptides and mucin” value is reported as at most 45%.

In the case of `CC(=O)Oc1ccccc1C(=O)O` [acetylsalicylic acid], in data set [5], the DE50 was 100 mg/kg.
